This is an account of results in patent publication US20070238731A1, “Dna-Pk Inhibitors” (KUDOS PHARMACEUTICALS LIMITED, priority 2004, published 2007).

One series relates to HeLa cells. As to the kind of experiment: Survival Enhancement Ratio (clonogenic survival assay after 2 Gray irradiation). Format: cell-based. The following applies: inhibitor 100 nM.
The target in a further series is DNA-PK (Homo sapiens, UniProt P78527). Conditions: read-out: IC50 towards DNA-PK; cited from earlier work.
A further series has as its system cells. Conditions: cited from earlier work.
The target in another series is PI 3-kinase. The following applies: stated to be the same as for DNA-PK; cited from earlier work.

Molecules are shown by their SMILES. pIC50: −log10 of the molar value.

Experimental for HeLa cells: Gray irradiation was calculated from the formula: [formula] The degree of cell killing was monitored by a standard clonogenic survival assay. […] Four hours later, compound or vehicle control was added to the cells. […] The cells were then incubated for a further 16 hours before the media was replaced with fresh media in the absence of DNA-PK inhibitor. After 8 days, colonies formed were fixed and stained with Giemsa (Sigma, Poole, UK) and scored using an automated colony counter (Oxford Optronics Ltd, Oxford, UK). The data was calculated as described above.

Consider `O=c1cc(N2CCOCC2)oc2c(-c3cccc4c3sc3ccccc34)cccc12`, for which, in the series with HeLa cells, the “Survival Enhancement Ratio (SER)” value is recorded as 1.3.
By melting point is commonly meant the temperature, or range, at which the solid turns liquid. `O=C(CCNCC1CCCO1)Nc1ccc(-c2cccc3c(=O)cc(N4CCOCC4)oc23)c2sc3ccccc3c12` (centres unmarked) [Compound 53] gave a melting point of 148 °C.
By pIC50 is commonly meant −log10 of the IC50, conventionally taken in molar units. On to `O=c1cc(N2CCOCC2)oc2c(-c3ccccc3)cccc12` [LY294002], for which the negative-log IC50 (pIC50) on DNA-PK and on PI 3-kinase was approximately 6.00 in each case. For the same molecule, the “sensitisation of cells to the effects of IR” value with cells is on record as “weakly sensitise cells to the effects of IR”.
